Source: US20080097385A1, “Therapeutic Adjuncts to Enhance the Organ Protective Effects of Postconditioning” (priority 2004, published 2008)
Read-outs that look alike come from different tables or passages of the source.

Columns and labels:
[1] = tested on: anesthetized open-chest rats (LCA occlusion/reperfusion); test: Anesthetized open-chest rats: LCA occlusion 30 min, reperfusion 3 h; infarct size (TTC) with adenosine receptor antagonists with or without postconditioning; type: in vivo; details: rat
Experimental: (§1) Adenosine is a mediator of the cardioprotection of postconditioning. Isolated-perfused mouse hearts were subjected to 20 min global ischemia (I) and 30 min reperfusion (R) with or without Postcon (6 cycles of 10 sec. R & occlusion). Intravascular purines in coronary effluent were analyzed by HPLC. To determine whether endogenous adenosine played a physiological role in postconditioning, the left coronary artery (LCA) was occluded for 30 min and reperfused for 3 hours in anesthetized open-chest rats. The rats were randomly divided into six groups (n=8 each): Control (no intervention); postconditioning (3 cycles of 10-s R followed by 10-s LCA I before 3 hours R); 8-SPT (subtype non-selective adenosine receptor antagonist, 10 mg/kg), or ZW241385 (A2a receptor antagonist, 0.2 mg/kg), was given 5 min before R with or without postconditioning. In mouse hearts, postconditioning decreased effluent [adenosine] at 2 min R (58±5* vs 155±16 nM/min/g), and improved contractile function (LV developed pressure 32±7* vs 16±2 mmHg) and end-diastolic pressure (27±3* vs 36±3 mmHg) at 5 min R which persisted at 30 min R. In in vivo rats, postconditioning reduced infarct size (TTC) vs the control group (40±3.1%* vs 52±2.2%). 8-SPT (51±2.5%) or ZM241385 alone (50±2.1%) without postconditioning had no effect on infarct size. The infarct-sparing effect of postconditioning was abrogated by 8-SPT and ZM241385 (50±1.8% and 49±2.6%). Neutrophil (PMN) accumulation (myeloperoxidase activity) in the area at risk was less in postconditioning vs Control (1.0±0.2* vs 2.2±0.4 U/100 g protein); adenosine receptor antagonists blocked the reduction of PMN accumulation in postconditioning (postconditioning+8-SPT 2.1±0.2; postconditioning+ZM241385 1.6+0.2).

[2] = tested on: anesthetized open-chest rats (LCA occlusion/reperfusion); test: Neutrophil (PMN) accumulation (myeloperoxidase activity) in the area at risk, rat LCA occlusion/reperfusion; type: in vivo; details: postconditioning + antagonist, postconditioning 1.0±0.2, Control 2.2±0.4
Experimental: as §1, with “The infarct-sparing effect of postconditioning was abrogated by 8-SPT and ZM241385 (50±1.8% and 49±2.6%). Neutrophil (PMN) accumulation (myeloperoxidase activity) in the area at risk was less in postconditioning vs Control (1.0±0.2* vs 2.2±0.4 U/100 g protein); adenosine receptor antagonists blocked the reduction of PMN accumulation in postconditioning (postconditioning+8-SPT 2.1±0.2; postconditioning+ZM241385 1.6+0.2).” left out

[3] = tested on: rat model of myocardial infarction; test: Rat model of myocardial infarction: LCA occlusion 30 min, reperfusion 3 h; infarct size with cariporide with or without postconditioning; type: in vivo
Experimental: Cross-hatched bar=time when the sodium-hydrogen exchange inhibitor (NHE-1), cariporide is administered intravenously. Vertical hatched bar=postconditioning algorithm. Control (n=8); occlusion of the left coronary artery (LCA) for 30 min (dark bar), was followed by 3 h of reperfusion (open bar). Post-con (n=8); 10 of full reperfusion (R, open bar) and 10 s of re-occlusion ischemia (I, dark bar) were repeated for three cycles. NHE(1) (n=8); cariporide (1 mg/kg) was injected 5 min prior to reperfusion, followed by unbridled R. NHE(1)+Post-con (n=8); cariporide followed by Post-con. Delay (D)-NHE(1) (n=8); cariporide was injected for 5 min after 1 min of full unbridled reperfusion. Post-con+D-NHE(1) (n=8); Post-con followed by injecting cariporide for 5 min. […] Infarct size is expressed as a percentage of AN and AAR. In all groups, infarct size decreased compared to that of Control. […] Post-con=postconditioning. Values are means ±SEM. Postconditioning can be enhanced by pharmacological means which capture the protective actions of the proximal mediators such as adenosine and opioids. In a rat model of myocardial infarction, it can be shown that the dual approach of attenuating reperfusion injury by applying postconditioning in the presence of a sodium-hydrogen exchange (NHE-1) inhibitor during early reperfusion achieves greater infarct size reduction than either intervention alone. Specifically, in an anesthetized rat model, the left coronary artery (LCA) was occluded for 30 min of ischemia (I) and reperfused for 3 hours. Rats were randomly divided into six groups (n=8 each) (FIG. 10): Control: no intervention at reperfusion; Postconditioning: three cycles of 10-s reperfusion followed by 10-s re-occlusion were applied during the first minute of reperfusion; NHE(1): cariporide (1 mg/kg) was infused 5 min before reperfusion, with or without postconditioning; Delayed (D)-NHE(1): a 5-minute infusion of cariporide was begun 1 min after onset of reperfusion equivalent to postconditioning period; Post-con+D-NHE(1): Completion of postconditioning was followed immediately by cariporide infusion for 5 min. […] When NHE(1) preceded postconditioning as a reperfusion intervention, infarct size was not further reduced (45±2%*) compared to either intervention alone. However, an additive reduction in infarct size was achieved when postconditioning preceded NHE(1) inhibitor at reperfusion (Post-con+D-N-HE(1), 34±2%). Thus, infarct size reduction by postconditioning is enhanced by NHE inhibition at reperfusion when postconditioning precedes cariporide administration.

[4] = tested on: rabbit model of myocardial infarction; details: cited from earlier work
[5] = antagonist alone, given 5 min before reperfusion, without postconditioning, control 52±2.2%
[6] = antagonist given 5 min before reperfusion, with postconditioning, postconditioning alone 40±3.1%

With `Cn1c(=O)c2[nH]c(-c3ccc(S(=O)(=O)O)cc3)nc2n(C)c1=O` [8-SPT] as the molecule, how does the “infarct size (TTC)” value [1, 5] read?
The value was 51±2.5%.

What about the “infarct size (TTC)” value [1, 6] of the same molecule?
The value was 50±1.8%.

And the “neutrophil (PMN) accumulation (myeloperoxidase activity) in the area at risk” value [2]?
The value was 2.1±0.2 U/100 g protein.

Which “infarct size (TTC)” value [1, 5] does the source give for `Nc1nc(NCCc2ccc(O)cc2)nc2nc(-c3ccco3)nn12` [ZM241385] here?
The value was 50±2.1%.

And the “infarct size (TTC)” value [1, 6]?
The value was 49±2.6%.

What about the “neutrophil (PMN) accumulation (myeloperoxidase activity) in the area at risk” value [2] of the same molecule?
Its value is 1.6+0.2 U/100 g protein.

Which results are given for `CC(C)c1ccc(C(=O)NC(=N)N)cc1S(C)(=O)=O` [cariporide]?
infarct size (AN as percentage of AAR) ([3]; NHE(1) alone: cariporide 1 mg/kg infused 5 min before reperfusion, no postconditioning): 43±2%; infarct size (AN as percentage of AAR) ([3]; NHE(1)+Post-con: cariporide 1 mg/kg 5 min before reperfusion, followed by postconditioning): 45±2%; decrease in infarct size compared with postconditioning alone ([3]; Post-con+D-NHE(1) group, FIG. 11): significantly greater than postconditioning alone; infarct size (AN as percentage of AAR) ([3]; Post-con+D-NHE(1): postconditioning followed immediately by 5 min cariporide infusion): 34±2%

What does the source list for `FC(F)OC(Cl)C(F)(F)F` (stereo not shown) [isoflurane]?
infarct size ([4]; 0.5 minimum alveolar concentration isoflurane alone, control 41±2%): 43±3 % of the left ventricular area at risk; infarct size ([4]; 1.0 minimum alveolar concentration isoflurane alone, control 41±2%): 21±2 % of the left ventricular area at risk; infarct size ([4]; combined postconditioning (10 s) and 0.5 minimum alveolar concentration isoflurane): 17±5 % of the left ventricular area at risk
